Earlier results as cited in patent US6673908B1, “Tumor necrosis factor receptor 2” (Nuvelo, Inc., priority 1999, dated 2004).
Counter-ions that a name gives are not always drawn. Like-named read-outs stand apart in the source and are kept apart here.

Experiments:
[1] = test system: advanced colorectal cancer
[2] = biological target: T1, 5-lipoxygenase (5-LO) (Homo sapiens, UniProt P09917); settings: for FEV1, % change from baseline: high dose
T1 construct: host or cells: asthma patients (in vivo, endogenous enzyme)
T1 sequence (P09917 1-674): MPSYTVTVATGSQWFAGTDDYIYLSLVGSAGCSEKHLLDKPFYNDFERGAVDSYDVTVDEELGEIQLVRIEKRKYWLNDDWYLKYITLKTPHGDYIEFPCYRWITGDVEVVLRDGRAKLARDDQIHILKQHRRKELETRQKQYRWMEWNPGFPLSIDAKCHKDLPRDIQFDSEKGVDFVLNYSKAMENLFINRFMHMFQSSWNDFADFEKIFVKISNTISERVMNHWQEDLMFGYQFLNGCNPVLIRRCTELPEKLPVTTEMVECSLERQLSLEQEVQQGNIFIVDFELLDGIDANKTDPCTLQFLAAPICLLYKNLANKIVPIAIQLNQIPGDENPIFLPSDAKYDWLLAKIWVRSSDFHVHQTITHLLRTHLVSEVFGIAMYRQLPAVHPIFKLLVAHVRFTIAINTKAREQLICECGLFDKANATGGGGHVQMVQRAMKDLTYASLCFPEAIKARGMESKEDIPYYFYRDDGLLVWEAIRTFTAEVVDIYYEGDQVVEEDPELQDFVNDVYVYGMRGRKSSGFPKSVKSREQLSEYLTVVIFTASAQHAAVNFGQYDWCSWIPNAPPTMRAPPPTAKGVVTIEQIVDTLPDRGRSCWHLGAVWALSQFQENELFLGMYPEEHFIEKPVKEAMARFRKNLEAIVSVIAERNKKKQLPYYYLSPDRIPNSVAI

[3] = test system: β2-adrenergic receptor
[4] = test system: CD3 lymphocytes; settings: in vivo
[5] = test system: hepatitis C virus (HCV)

O=c1[nH]cc(F)c(=O)[nH]1 [5-fluorouracil]
patients with a complete response (complete tumor disappearance) [1]: 1-5%
patients with an objective response [1]: 20-40%

C[C@H](C#Cc1ccc(Cc2ccc(F)cc2)s1)N(O)C(N)=O [ABT-761]
FEV1, % change from baseline ([2]; Mutant, Day 8): 1.8%
FEV1, % change from baseline ([2]; Mutant, Day 84): 5%
FEV1, % change from baseline ([2]; Wild type, Day 8): 8.2%
FEV1, % change from baseline ([2]; Wild type, Day 84): 18.5%
improvement of forced expiratory volume ([2]; heterozygous patients, high-dose active treatment, within one week): 23.3±6.0%
improvement of forced expiratory volume ([2]; patients with mutant genotype, active 5-LO inhibitor treatment): −1.2±2.9%
improvement of forced expiratory volume ([2]; wild-type patients, high-dose active treatment): 18.8±3.6%

Nc1c2c(nc3ccccc13)CCCC2 [Cognex, tacrine hydrochloride]
patients showing no change or minimal worsening of their disease (Alzheimer's disease patients): about 45%
patients minimally improved (Alzheimer's patients): About 58%
patients much improved (Alzheimer's patients): about 2%

COc1ccc(CC(C)NCC(O)c2ccc(O)c(NC=O)c2)cc1 (stereo not shown) [Formoterol]
Degree of Brochodilator Desensitisation after Formoterol Therapy: 6 Hour FEF25-75 ([3]; Arg 16 (n = 4)): 23%
Degree of Brochodilator Desensitisation after Formoterol Therapy: 6 hour FEV1 ([3]; Arg 16 (n = 4)): 28%
Degree of Brochodilator Desensitisation after Formoterol Therapy: Maximal FEF25-75 ([3]; Arg 16 (n = 4)): −35%
Degree of Brochodilator Desensitisation after Formoterol Therapy: Maximal FEV1 ([3]; Arg 16 (n = 4)): −8%
mean FEV1 desensitisation ([3]; Arg16 homozygotes): 28%
Degree of Brochodilator Desensitisation after Formoterol Therapy: 6 Hour FEF25-75 ([3]; Gln27 (n = 5)): 38%
Degree of Brochodilator Desensitisation after Formoterol Therapy: 6 hour FEV1 ([3]; Gln27 (n = 5)): 47%
Degree of Brochodilator Desensitisation after Formoterol Therapy: Maximal FEF25-75 ([3]; Gln27 (n = 5)): −15%
Degree of Brochodilator Desensitisation after Formoterol Therapy: Maximal FEV1 ([3]; Gln27 (n = 5)): 3%
Degree of Brochodilator Desensitisation after Formoterol Therapy: 6 Hour FEF25-75 ([3]; Glu/Gln27 (n = 11)): 70%
Degree of Brochodilator Desensitisation after Formoterol Therapy: 6 hour FEV1 ([3]; Glu/Gln27 (n = 11)): 65%
Degree of Brochodilator Desensitisation after Formoterol Therapy: Maximal FEF25-75 ([3]; Glu/Gln27 (n = 11)): 45%
Degree of Brochodilator Desensitisation after Formoterol Therapy: Maximal FEV1 ([3]; Glu/Gln27 (n = 11)): 52%
Degree of Brochodilator Desensitisation after Formoterol Therapy: 6 Hour FEF25-75 ([3]; Gly 16 (n = 10)): 103%
Degree of Brochodilator Desensitisation after Formoterol Therapy: 6 hour FEV1 ([3]; Gly 16 (n = 10)): 80%
Degree of Brochodilator Desensitisation after Formoterol Therapy: Maximal FEF25-75 ([3]; Gly 16 (n = 10)): 73%
Degree of Brochodilator Desensitisation after Formoterol Therapy: Maximal FEV1 ([3]; Gly 16 (n = 10)): 48%
mean FEV1 desensitisation ([3]; Gly16 homozygotes): 80%
Degree of Brochodilator Desensitisation after Formoterol Therapy: 6 Hour FEF25-75 ([3]; Gly/Arg 16 (n = 8)): 70%
Degree of Brochodilator Desensitisation after Formoterol Therapy: 6 hour FEV1 ([3]; Gly/Arg 16 (n = 8)): 57%
Degree of Brochodilator Desensitisation after Formoterol Therapy: Maximal FEF25-75 ([3]; Gly/Arg 16 (n = 8)): 50%
Degree of Brochodilator Desensitisation after Formoterol Therapy: Maximal FEV1 ([3]; Gly/Arg 16 (n = 8)): 48%

Monoclonal antibody: murine monoclonal antibody to deplete the circulating CD3 lymphocytes; reacts with the T3 recognition site of T-lymphocytes
sensitization rate [4]: 15-40%
treated patients producing human anti-mouse antibodies (HAMA) [4]: 80%

interferon alpha
patients in whom viral infection is completely and permanently eliminated ([5]; hepatitis C virus infection): less than a quarter of patients
patients receiving virtually no benefit ([5]; hepatitis C virus infection): Nearly half of patients
response rates ([5]; patients with HCV genotype 1 (especially 1b)): under 10%
response rates ([5]; patients with HCV genotype 2 or 3): greater than 40%
